# “Also recorded” adds a separate entry of the source.
# How the values were obtained:
# [1] = tested on: coffee berry borer Hypothenemus hampei; assay: Field trapping trials in Costa Rica (Brocap traps in arabica coffee plantation); type: in vivo; settings: Costa Rica field tests; result in words
# Method: The trials carried out above were supplemented in 2017 in Costa Rica, in a context of larger coffee berry borer populations. The trapping trials were carried out between Feb. 21 and Apr. 27, 2017, in the commercial arabica coffee plantations of the CATIE (Centro Agronómico Tropical de Investigación y Enseñanza) [The Tropical Agricultural Research and Higher Education Center] in Turrialba, Costa Rica. […] The Coffea arabica var. caturra plantations, located at approximately 600 meters of altitude, were planted in 2010 in combination with Erythrina poeppigiana as shade trees. The rows are oriented along the contour lines with a spacing of 80 cm between the plants and 2 meters between the rows (6300 plants/ha). All of the plots benefit from considerable annual maintenance: pluriannual weeding or chemical weed-killing between the rows, chemical fertilization during fruit formation, fungicide and optionally insecticide treatments in the event of coffee berry borer infestation. The yields therefrom are medium, about 1000 kg/ha/year of green bean coffee. Brocap® traps were placed directly in the coffee trees, suspended from the branches at a height of approximately 1 meter and with a spacing between the traps of approximately 20 meters. […] The number of coffee berry borers trapped was recorded daily. […]
# [2] = tested on: coffee berry borer Hypothenemus hampei; assay: Field trapping trials in Brazil (Unitrap traps in arabica coffee plantation); type: in vivo; settings: Brazil field tests, result in words
# Method: The trapping trials were carried out between Jan. 8 and Mar. 31, 2016, during the fruit maturation phase, in an arabica coffee plantation conducted under biodynamic conditions in the municipality of […] Boa Vista, in the State of São Paulo in Brazil, at an altitude of 800 m. For each test, three plots received trials, each representing a random complete block. The Coffea arabica var. tupi plantations were set up at the beginning of the 2000s in combination with shade trees (Acacia mangium, Acacia auriculiformis, […] sepium, Leucaena leucocephala). The rows are oriented along the contour lines with a variable spacing according to the plots (0.6 to 0.75×3 to 3.6 meters), and the shade trees are planted at regular intervals in the rows of coffee trees. All of the plots benefit from considerable annual maintenance: regular cutting between the rows, organic fertilization and weeding during fruit formation, foliar fertilization during bean swelling and maturation. […] The traps (Pherobank Unitrap wing model) were placed directly in the coffee trees, suspended from the branches at a height of 1.20 meters or as high as possible when the plants were smaller. The spacing between the traps is approximately 20 meters. The products used were supplied by Sigma-Aldrich. They are: The products were placed in 2 ml glass vials, in which the opening of the septum allows free diffusion by evaporation. A first diffuser contained 0.5 ml of ethanol and 0.5 ml of methanol. A second diffuser contained, where appropriate, the terpenoids diluted in paraffin (0.5 ml of (-)-limonene or 0.5 ml of (+)-limonene, 0.5 ml of paraffin and where appropriate 0.1 ml of (-)-α-pinene). The number of coffee berry borers trapped was recorded daily, and the modes tested were modified each week which represents a test. Each recording in each block represents a repetition. Between each test, the traps were washed with a 2% TFD4 solution and the diffusers were changed.
Compound,"Effect on number of borers trapped when combined with the ethanol/methanol mixture, compared with the ethanol/methanol mixture alone [1]","Effect on number of borers trapped when combined with the ethanol/methanol mixture, compared with the alcohols alone [2]","Effect on number of borers trapped when combined with the ethanol/methanol mixture, compared with the alcohols alone ([2]; listed as (+) enantiomer of limonene)"
"CCCCC(CC)CO (racemic) [2-ethyl-1-hexanol, 2-Ethyl-1-hexanol]",clearly increased; also recorded: makes it possible to increase the trappings,,
"C=C(C)[C@@H]1CC=C(C)CC1 [(−)-limonene, (S)-(−)-Limonene]",clearly increased,improves the attractiveness; also recorded: significantly increased; also recorded: clearly increased,
"C=C(C)[C@H]1CC=C(C)CC1 [(+)-limonene, (R)-(+)-Limonene, reference compound]",,did not make it possible to improve the captures,does not increase the number of borers trapped
"C=CC(C)(O)CCC=C(C)C (stereo not drawn) [linalool, reference compound]",,virtually disappears,
